Assays:
[1] = target: T1, vWF Binding to Gp1b (Homo sapiens, UniProt P04275+P07359); test: Inhibition of ristocetin-induced binding of 125I-vWF to formalin-fixed platelets; details: at 100 µg/ml; ristocetin 1.0 mg/ml
T1 construct: multimeric vWF (isolated from human plasma cryoprecipitate); Formalin-fixed platelets, prepared according to the method of MacFarlane; from tissue; host or cells: vWF from human plasma cryoprecipitate; GPIb on formalin-fixed platelets
Description: The binding of vWf (vonWillebrand Factor) to glycoprotein Ib is measured in one of two experimental systems, in the presence of either ristocetin or botrocetin as modulators of binding. The ristocetin modulated binding is described herein.
Formalin-fixed platelets, prepared according to the method of MacFarlane, D. et al., Thromb. Diath. Haemorrh. 34, 306-308 (1975), were preincubated at room temperature for 15 minutes with specified dilutions of oligomers according to the present invention. Ristocetin, (Sigma, St. Louis, MO) diluted to a final concentration of 1.0 mg/ml, and ^125I-labelled multimeric vWF (isolated from human plasma cryoprecipitate according to the method of Fulcher, C.A. et al. Proc. Natl. Acad. Sci. USA, 79, 1648-1652 (1982), and labelled according to the method of Fraker, P.J. et al. Biochem. Biophys. Res. Commun., 80, 849-857 (1978)) were then added to the incubation mixture, and the amount of ^125I- vWF bound to the platelets was determined. ^125I-vWF binding to the platelets was referenced against 100% binding which was defined as the amount of ^125I- vWF bound in the absence of added oligomer compound. The method for measuring vWF binding is reported in detail in Ruggeri et al., J. Clin. Invest., 72, 1-12, (1983), herein incorporated by reference.

[2] = tested on: Vascular smooth muscle cells (VSMC); test: Smooth Muscle Cell DNA Synthesis Assay (3H-thymidine incorporation in response to PDGF); assay type: cell-based, swine; details: inhibition of incorporation of 3H-thymidine in response to PDGF (9 ng/ml)
Description: Vascular smooth muscle cells (VSMC) are isolated from swine coronaries obtained from swine hearts (Hatfield Meat Packing, Hatfield, PA) by enzyme dissociation as described by Gunther, et al., in J. Cell. Biol. 92, 289 (1982). Hyaluronidase (0.5 mg/ml) is added to facilitate dispersal. Cells are maintained in Earle's modified minimal essential medium (EMEM) with D-valine substituted for L-valine, supplemented with Hepes (10 mM), fetal bovine serum (FBS) (10%), penicillin (100 U/ml) and streptomycin ( 100 µg/ml).
The VSMC (passage 2) are plated at a density of 3 x 10^4 /cm2 (1x10^4 cells/well of 96 well tray) and after 48 hours of normal growth are arrested by replacement of above media with serum-free media for 48 hours consisting of: EMEM: Hams F12 (1:1), insulin, 5 µg/ml; transferrin, 35 µg/ml; selenite, 5 ng/ml; antibiotics and buffer (as above). The oligomer of the present invention to be tested (.01-10 µM) is added 2 hours prior to addition of porcine platelet derived growth factor (Research and Diagonostics, Minneapolis, MN), or FBS,in fresh serum-free media. Twenty-four hours later the oligomers are again added preceding addition of growth factors by 2 hours. […]
The VSMC are pulsed (5 hours) with ^3H-thymidine (Amersham, Arlington Heights, IL) (1 µCi/well of a 96 well plate; 42 Ci/mmole) added 15-18 hours after the last dose of growth factor. DNA synthesis is determined in NaOH extraction of ethanol/ether fixed cells as reported by Nemecek, et al., PNAS 83, 674 (1986). The cells are washed with phosphate bufferred saline (200 µl/well of 96-well tray. The cells are incubated with trichloroacetic acid (TCA) (10%, 200 ul) for 5 minutes to remove cytoplasmic label. After a rapid wash with cold 10% TCA, cells are fixed with ethanol/ether (2:1, 200 µl/well 5 min) and dried. The labeled DNA is extracted with 0.5 N NaOH (200 µl/well 30 min incubation, room temperature). The extracted DNA is neutralized (0.5 N HCI) and counted by liquid scintillation.
Statistical evaluation is as reported by Bilder, et al., Am. […] IC50 values are calculated by linear regression (RPL of RS1) from % inhibition of a minimum of 3 log fold dilutions of oligomers in the presence of PDGF (9 ng/ml) which give 70-80% of a maximal PDGF response. […] Percent inhibition is calculated by comparing the effect of PDGF alone (vehicle treated cultures + PDGF minus vehicle treated cultures without PDGF) to the effect of oligomers (oligomer + PDGF minus oligomer alone) and divided by the effect of PDGF times 100. i.e., = % inhibition = ((ΔVehicle + PDGF) - (Δoligomer + PDGF)/(Δvehicle + PDGF)) x 100.

[3] = tested on: normal pooled plasma; test: Anticoagulation activity, Activated Partial Thromboplastin Time (APTT) test; details: concentration required to double clotting time
Summary of the method: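 Normal pooled plasma was mixed with compound in 50 mM Tris-HCl, pH 7.5, and held at 37 °C for 2.5 min. Actin-activated cephaloplastin was added for 5 min, then 35 mM CaCl, and clotting time was read photometrically. Over about .025–1 mg/ml, the concentration doubling clotting time was found by linear interpolation.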

T1 sequence (P04275 764-2813 limits assumed): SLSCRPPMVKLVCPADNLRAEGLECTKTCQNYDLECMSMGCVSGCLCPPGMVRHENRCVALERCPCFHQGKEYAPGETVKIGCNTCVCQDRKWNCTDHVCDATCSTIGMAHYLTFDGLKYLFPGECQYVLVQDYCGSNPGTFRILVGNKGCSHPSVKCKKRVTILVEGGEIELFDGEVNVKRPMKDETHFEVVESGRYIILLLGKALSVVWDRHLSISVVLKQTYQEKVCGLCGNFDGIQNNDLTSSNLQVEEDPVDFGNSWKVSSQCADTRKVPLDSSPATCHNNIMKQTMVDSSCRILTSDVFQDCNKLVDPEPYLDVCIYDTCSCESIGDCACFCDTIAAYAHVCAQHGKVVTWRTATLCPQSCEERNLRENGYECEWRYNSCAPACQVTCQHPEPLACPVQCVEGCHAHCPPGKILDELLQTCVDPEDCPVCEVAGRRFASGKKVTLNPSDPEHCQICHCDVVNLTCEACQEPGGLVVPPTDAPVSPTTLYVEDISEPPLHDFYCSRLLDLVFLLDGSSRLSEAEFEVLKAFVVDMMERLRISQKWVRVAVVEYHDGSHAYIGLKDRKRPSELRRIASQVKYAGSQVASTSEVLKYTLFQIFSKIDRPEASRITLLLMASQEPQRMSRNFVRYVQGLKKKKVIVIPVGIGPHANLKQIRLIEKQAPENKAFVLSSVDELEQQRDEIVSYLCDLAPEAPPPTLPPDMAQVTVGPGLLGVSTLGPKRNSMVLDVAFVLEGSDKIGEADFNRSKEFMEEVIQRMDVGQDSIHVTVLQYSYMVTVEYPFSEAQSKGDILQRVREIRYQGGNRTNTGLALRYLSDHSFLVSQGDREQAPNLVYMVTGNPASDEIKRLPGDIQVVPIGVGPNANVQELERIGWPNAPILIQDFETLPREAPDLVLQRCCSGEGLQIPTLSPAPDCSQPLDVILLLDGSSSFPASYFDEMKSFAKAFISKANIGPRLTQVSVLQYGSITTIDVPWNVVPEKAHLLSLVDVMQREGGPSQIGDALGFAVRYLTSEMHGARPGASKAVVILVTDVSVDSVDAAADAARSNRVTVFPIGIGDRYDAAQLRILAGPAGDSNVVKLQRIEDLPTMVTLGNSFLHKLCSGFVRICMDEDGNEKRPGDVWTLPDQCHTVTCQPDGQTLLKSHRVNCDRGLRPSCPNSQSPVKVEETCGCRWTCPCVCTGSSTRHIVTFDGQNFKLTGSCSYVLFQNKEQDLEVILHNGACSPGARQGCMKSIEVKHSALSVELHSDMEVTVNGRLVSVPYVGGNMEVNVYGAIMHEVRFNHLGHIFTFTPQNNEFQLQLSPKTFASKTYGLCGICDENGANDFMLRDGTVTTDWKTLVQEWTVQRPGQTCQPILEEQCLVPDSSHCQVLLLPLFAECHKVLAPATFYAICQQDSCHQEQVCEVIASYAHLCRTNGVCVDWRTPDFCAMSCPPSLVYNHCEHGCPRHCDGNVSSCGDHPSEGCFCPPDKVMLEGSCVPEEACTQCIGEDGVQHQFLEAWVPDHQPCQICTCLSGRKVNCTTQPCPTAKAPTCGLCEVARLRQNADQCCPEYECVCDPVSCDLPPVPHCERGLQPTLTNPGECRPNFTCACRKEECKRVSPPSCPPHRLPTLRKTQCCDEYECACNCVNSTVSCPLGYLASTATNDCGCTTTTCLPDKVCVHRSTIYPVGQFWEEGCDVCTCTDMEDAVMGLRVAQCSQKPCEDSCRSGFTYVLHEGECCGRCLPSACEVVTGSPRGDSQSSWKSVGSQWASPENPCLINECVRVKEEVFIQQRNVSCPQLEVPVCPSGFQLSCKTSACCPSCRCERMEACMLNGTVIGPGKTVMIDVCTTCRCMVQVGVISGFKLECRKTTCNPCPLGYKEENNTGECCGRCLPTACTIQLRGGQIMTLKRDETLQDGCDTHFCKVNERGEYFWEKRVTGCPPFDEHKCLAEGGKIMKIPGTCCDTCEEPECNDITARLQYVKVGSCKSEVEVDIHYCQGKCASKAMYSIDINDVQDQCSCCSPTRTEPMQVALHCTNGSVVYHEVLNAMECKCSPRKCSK
T1 sequence (P07359 17-652): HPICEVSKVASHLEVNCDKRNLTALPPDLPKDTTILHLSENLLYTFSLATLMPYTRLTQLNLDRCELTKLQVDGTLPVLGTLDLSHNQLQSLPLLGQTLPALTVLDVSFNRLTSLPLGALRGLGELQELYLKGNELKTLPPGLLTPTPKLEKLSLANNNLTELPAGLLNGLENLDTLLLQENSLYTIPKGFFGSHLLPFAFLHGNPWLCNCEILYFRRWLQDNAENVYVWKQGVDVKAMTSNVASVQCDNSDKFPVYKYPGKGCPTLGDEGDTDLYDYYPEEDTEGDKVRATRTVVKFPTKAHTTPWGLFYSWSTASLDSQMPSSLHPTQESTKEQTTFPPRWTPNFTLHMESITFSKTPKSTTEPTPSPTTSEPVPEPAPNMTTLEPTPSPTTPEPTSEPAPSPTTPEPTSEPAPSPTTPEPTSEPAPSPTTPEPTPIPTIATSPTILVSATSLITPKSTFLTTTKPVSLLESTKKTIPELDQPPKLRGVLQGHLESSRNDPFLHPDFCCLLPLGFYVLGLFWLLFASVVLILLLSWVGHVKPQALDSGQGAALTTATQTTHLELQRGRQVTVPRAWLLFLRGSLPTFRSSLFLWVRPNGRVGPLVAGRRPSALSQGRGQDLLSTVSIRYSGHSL

- Ristocetin-Induced Inhibition of vWF Binding to Gp1b [1]: 50% at 100 µg/ml
- IC50 [2]: 1600 nM
Compound: Cc1cc(O)c(Cc2cc(O)c(Cc3cc(O)c(Cc4cc(O)c(Cc5cc(O)c(Cc6cc(O)c(Cc7cc(O)c(Cc8cc(O)ccc8CCC(=O)O)cc7CCC(=O)O)cc6CCC(=O)O)cc5CCC(=O)O)cc4CCC(=O)O)cc3CCC(=O)O)cc2CCC(=O)O)cc1CCC(=O)O [Ex 4, 5-[4-[4-[4-[4-[4-[4-[[2-(2-carboxyethyl)-5-hydroxy]benzyl]-[2-(2-carboxyethyl)-5-hydroxy]benzyl]-[2-(2-carboxyethyl)-5-hydroxy]benzyl]-[2-(2-carboxyethyl)-5-hydroxy]benzyl]-[2-(2-carboxyethyl)-5-hydroxy]benzyl]-[2-(2-carboxyethyl)-5-hydroxy]benzyl]-[2-(2-carboxyethyl)-5-hydroxy]benzyl]-4-hydroxy-2-methylhydrocinnamic acid]
- APTT ICDCT [3]: 430 µg/mL
